Source: patent US9364002B2, “Plant volatiles” (Keygene N.V., priority 2007, dated 2016)

Columns and labels:
[1] = test system: B. tabaci; assay: Statistical correlation (stepwise-linear regression, MANOVA) of headspace volatiles with whitefly repellence ranking; set-up: species or system Bemisia tabaci; details: for compounds responsible for repellency or attraction of whitefly: linked to S. pennelli, S. habrochaites or cultivated S. lycopersicum headspace; for Effect on insects: volatiles of tomato headspace correlated to whitefly repellency/attraction score by linear regression; for association: semiochemicals associated to B. tabaci repellence or attraction
Excerpt: In a large experiment (see Example 2), the headspace of 16 wild tomato accessions and 5 cultivated tomato lines were sampled and analyzed (6 repeats). In total 51 compounds were identified to be present in the captured headspace. Furthermore, the level of repellency/attraction of each of the 21 tomato accessions was established in free choice bioassays with B. tabaci (biotype Q), using a ranking scale of 1-7 (1=highest repellency to 7=lowest repellency). Next, the identified volatile compounds were correlated to the repellency/attraction score of each tomato accession through a linear regression analysis.
The headspace of 16 wild tomatoes and 5 cultivated tomatoes (Table 4) was collected. Undisturbed 3-weeks old tomato plants were transferred to 40-L desiccators. The headspace was sampled during 24 h including a 16 h light period, by trapping of the volatile components as described above. […] Each accession was sampled 6 times.
In a statistical analysis the correlation between the identified components of the tomato headspace and the ranking of whitefly repellence measured in the bioassays was made. Using two approaches, a stepwise-linear regression analysis and a MANOVA, 8 volatiles were identified to be correlated to whitefly repellence, whereas 24 other volatile compounds were eliminated as non-relevant for repellency or attraction.

[2] = test system: adult whiteflies B. tabaci; details: cited from earlier work
[3] = test system: fourth instar larvae of Colorado potato beetle; details: cited from earlier work
[4] = test system: B. tabaci; assay: Free-choice bioassay: headspace or pure volatiles added to one of four cv Moneymaker tomato plants; assay type: in vivo, Bemisia tabaci (biotype Q, Almeria population); details: pure compound added to Moneymaker background
Method: A population of Bemisia tabaci was collected at a common greenhouse in Santa Maria del Aguila (Almeria, Spain) in October 2005. By PCR analyses this population was identified to belong to the Q-biotype. The population was reared in a climate chamber (Temperature 28° C., 16 h light) on a mixture of tomato and cucumber plants. Preference of the insects for particular plants (treated or untreated/control-treated) was tested in free choice bioassays.
Free choice experiments with B. tabaci were carried out in a greenhouse compartment (28° C., RH 65%). Light was supplied by high-pressure sodium lamps (Hortilex Schréder SON-T PIA GP 600 W) with a radiation of 250 W/m^2. The preference behaviour of B. tabaci biotype Q (Almeria population) and biotype B (labculture Netherlands) was compared in bioassays with different wild tomatoes (LA1777, LA2560, GI1560) and S. lycopersicum cv Moneymaker). Plants were placed inside a plastic covered wooden tray (170×100×20 cm) filled with soil, at equal distance from each other. Two hundred adult whiteflies were captured, placed at 4° C. for five minutes and then released in the middle of the setup. Ten and 20 minutes after release, the number of whiteflies on each plant was recorded. Since no differential behaviour between B. tabaci B and Q was found, all further bioassays were done with the Almeria (Q) population.
For bioassays with headspace (total headspace or single compounds) four potted tomato plants (S. esculentum cv Moneymaker) were placed in a square setup at a distance of 50 cm. One hundred and fifty adult whiteflies were released and recorded as described above. To test the effect of selected headspace components on repellence, synthetic standards (FLUKA) were applied to either 10 filter-papers discs (Whatman, 25 mm diameter) or 10 rubber septa (Sigma Aldrich, Z167258). Prior to loading, the septa were placed in CH2Cl2 for 24 h and air-dried for 3 days (Heath et al., 1986). The paper discs or septa containing volatiles were attached to one of the four plants with metal wire. The position of the treated tomato was randomised. Five minutes after placing the volatiles on the plant, whiteflies were released. For each component at least 8 replications were carried out. Treatments were administered in a setup in which compounds were always added to the same plant in comparison to 3 plants with empty carriers. Prior to each assay with volatiles, the experiment was done with the 4 plants in an untreated setup, in the same position to allow comparison in the same background.
Host preference with and without manipulated headspace by B. tabaci was explored in free choice assays. In each setup four cultivated tomatoes (cv. Moneymaker) were tested as described earlier. For the bioassays with volatiles rubber septa (Sigma Aldrich Z167258) were extracted with CH2Cl2 for 24 hours and dried to the air for 3 days. The desired blend of volatiles was added to the rubber septa in 100 μl hexane. Bioassays with pure components, or mixtures of pure components were carried out as described above.

[5] = test system: B. tabaci antennae; assay: Electroantennography (EAG); set-up: species or system Bemisia tabaci; details: 10^-3 dilution in paraffin oil; response to paraffin oil subtracted
Method: Electroantennography (EAG) was employed to confirm the responsiveness of the atennae to 10^−3 dilution in paraffin oil (Uvasol, Merck) of the chemicals described. Small pieces of filter paper (2 cm2; Schleicher & Schuell, Dassel, Germany) were soaked with 100 μl of the standard dilution or praffin oil only (control). The filter paper was inserted into a 10-ml glass syringe (Poulten & Graf GmbH, Wertheim, Germany). A reproducible stimulus was supplied by puffing 5 ml of air over the antenna (Schutz et al., 1999). The EAG response was recorded for each standard (10^−3) dilution. The response to paraffin oil was considered as a negative control and was subtracted from all the reported EAG measurements. The EAG response expressed as a potential difference across the electrodes (in mV) for the different pure chemicals is given in the right-hand column of Table 5.

[6] = test system: pests of cut flowers (e.g. B. tabaci); details: fumigants at 10-20 mg/l, after 2-4 hours of exposure; cited from earlier work

SMILES: CC1=CC2C(CC1)C2(C)C (stereo not drawn) [2-carene]
- compounds responsible for repellency or attraction of whitefly [1]: significantly correlated to the more attractive cultivated S. lycopersicum plants
- Effect on insects [1]: Attractant

SMILES: CCCCCCCCCCCC(C)=O [2-tridecanone]
- toxic effect [2]: toxic effect

SMILES: CCCCCCCCCC(C)=O [2-undecanone]
- toxic effect [3]: toxic effect

SMILES: CC(C)=CCC[C@@H](C)[C@@H]1C=CC(C)=CC1 [7-epi zingiberene]
- compounds responsible for repellency or attraction of whitefly [1]: more unattractive
- association [1]: repellence
- effect on repellence/attractiveness of treated tomato plant (in words) [4]: clear repellent effect
- antennal response (EAG potential difference) [5]: 2.3 mV

SMILES: CC1=CCC(C(C)C)C=C1 (stereo not drawn) [Alpha-phellandrene]
- compounds responsible for repellency or attraction of whitefly [1]: repellent
- association [1]: repellence
- Effect on insects [1]: Repellent
- effect on repellence/attractiveness of treated tomato plant (in words) [4]: decreased tomato attractiveness significantly
- antennal response (EAG potential difference) [5]: 2.2 mV

SMILES: CC1=CC=C(C(C)C)CC1 [Alpha-terpinene]
- compounds responsible for repellency or attraction of whitefly [1]: repellent
- association [1]: repellence
- Effect on insects [1]: Repellent
- effect on repellence/attractiveness of treated tomato plant (in words) [4]: decreased tomato attractiveness significantly
- antennal response (EAG potential difference) [5]: 4.1 mV

SMILES: CC12CCC(CC1)C(C)(C)O2 [Cineole]
- mortality [6]: caused mortality

SMILES: CC(C)=CCC[C@H](C)c1ccc(C)cc1 [S-curcumene]
- compounds responsible for repellency or attraction of whitefly [1]: more unattractive
- association [1]: repellence
- effect on repellence/attractiveness of treated tomato plant (in words) [4]: clear repellent effect
- antennal response (EAG potential difference) [5]: 5.0 mV

SMILES: CC(C)=CCCC(C)c1ccc(C)cc1 (stereo not drawn) [alpha-curcumene]
- Effect on insects [1]: Repellent

SMILES: C=CC(=C)CCC=C(C)C [beta-myrcene]
- compounds responsible for repellency or attraction of whitefly [1]: repellent
- Effect on insects [1]: Repellent

SMILES: C=C1C=CC(C(C)C)CC1 (stereo not drawn) [beta-phellandrene]
- compounds responsible for repellency or attraction of whitefly [1]: significantly correlated to the more attractive cultivated S. lycopersicum plants
- Effect on insects [1]: Attractant

SMILES: CC1=CCC(C(C)C)=CC1 [gamma-terpinene]
- compounds responsible for repellency or attraction of whitefly [1]: repellent
- Effect on insects [1]: Repellent
- effect on repellence/attractiveness of treated tomato plant (in words) [4]: no significant behavioural effect

SMILES: C=C(C)[C@H]1CC=C(C)CC1 [limonene]
- compounds responsible for repellency or attraction of whitefly [1]: significantly correlated to the more attractive cultivated S. lycopersicum plants
- Effect on insects [1]: Attractant

SMILES: Cc1ccc(C(C)C)cc1 [para-cymene]
- compounds responsible for repellency or attraction of whitefly [1]: repellent
- association [1]: repellence
- Effect on insects [1]: Repellent
- antennal response (EAG potential difference) [5]: 2.4 mV

SMILES: C=CCc1ccc2c(c1)OCO2 [safrole]
- mortality [6]: caused mortality

SMILES: CC(C)=CCCC(C)[C@@H]1C=CC(C)=CC1 (stereo partly drawn) [zingiberene]
- Effect on insects [1]: Repellent
